We go through five compounds from article PMC11879040, “Advancing systemic toxicity risk assessment: Evaluation of a NAM-based toolbox approach” (Toxicological Sciences, 2024).

The target of test [1] is Acetylcholinesterase, ACHE (h) (Homo sapiens, UniProt P22303). In kind it is biochemical. To be noted: control galanthamine.
Test [2] concerns the target Histamine H2 receptor, HRH2 (h) (Homo sapiens, UniProt P25021). The test is described as follows: IPP HRH2 binding (antagonist radioligand). To be noted: control cimetidine.
Test [3] relates to Potassium Voltage-Gated Channel Kv non-selective, KCNQ1 (r). The test is described as follows: IPP KCNQ1 binding (antagonist radioligand). More on the design: species or system rat.
Test [4] deals with Gamma-aminobutyric acid receptor subunit alpha-1 BZD site, GABRA1A (r). The test is classed as binding, rat.
For test [5], the system named is Sodium channel protein type 5 subunit alpha (site 2), SCN5A (r). In kind it is binding, rat.
For test [6], the target named is T1, Estrogen receptor, ER1 (h) (Homo sapiens, UniProt P03372).
T1 construct: purchased Eurofins Cerep (SafetyScreen44-based IPP panel)
T1 sequence (P03372 1-595): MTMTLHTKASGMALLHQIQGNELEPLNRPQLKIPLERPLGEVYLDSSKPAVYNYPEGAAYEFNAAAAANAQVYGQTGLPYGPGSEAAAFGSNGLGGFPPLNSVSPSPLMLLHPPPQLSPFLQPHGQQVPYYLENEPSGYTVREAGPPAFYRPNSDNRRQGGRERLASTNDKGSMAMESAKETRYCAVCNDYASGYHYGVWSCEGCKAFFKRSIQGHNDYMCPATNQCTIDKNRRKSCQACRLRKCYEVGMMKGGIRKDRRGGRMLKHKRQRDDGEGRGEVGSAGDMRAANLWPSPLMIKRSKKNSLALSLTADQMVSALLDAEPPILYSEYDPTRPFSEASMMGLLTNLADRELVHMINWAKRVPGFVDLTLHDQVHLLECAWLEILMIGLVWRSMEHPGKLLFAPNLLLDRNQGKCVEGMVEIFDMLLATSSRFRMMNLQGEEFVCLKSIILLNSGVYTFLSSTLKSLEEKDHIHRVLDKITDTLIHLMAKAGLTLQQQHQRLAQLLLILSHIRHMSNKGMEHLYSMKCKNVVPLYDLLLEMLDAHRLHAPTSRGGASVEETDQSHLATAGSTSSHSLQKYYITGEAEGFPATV
The test is described as follows: IPP ER1 coactivator recruitment (antagonist). In kind it is biochemical. The settings on record: estriol.

Test [7] concerns Thyroid hormone receptor alpha, THRA (h). The test is described as follows: IPP THRA coactivator recruitment (agonist). The test is classed as biochemical, human.
Test [8] relates to HepG2 cells. The experiment in a line: Cell stress panel (CSP), 24 h, 8 concentrations, BIFROST global PoD. In kind it is cell-based. Here is the method:
Compounds were tested using the previously developed cell stress panel ([Hatherell et al. 2020]) and the expanded biomarker panel outlined in Middleton et al. HepG2 cells were treated with all compounds for 24 h across 8 concentrations prior to biomarker analysis. The same plate layout and number of replicates (3 biological and 2 technical) were used as previously for each assay within the panel.

Test [9] relates to HepG2 cells. The test is described as follows: High-throughput transcriptomics (HTTr, TempO-Seq), HepG2, 24 h. The settings on record: HepG2; for pod_httr_bifrost PoD: HTTr BIFROST PoD; for podl_path_minbmd PoD: HTTr minimum pathway BMD(L). In kind it is cell-based, human. Here is the method: (§1) HepG2, HepaRG, and MCF7 cells were treated with each compound for 24 h across a dose range of 7 concentrations and lysed using TempO-Seq lysis buffer (BioSpyder Technologies, proprietary kit, see [Middleton et al. 2022] for method details). Sequencing was performed using TempO-Seq (BioClavis) version 2 of the human whole transcriptome panel and analyzed as described previously in Middleton et al.

The next test relates to HepaRG cells. The experiment in a line: High-throughput transcriptomics (HTTr, TempO-Seq), HepaRG, 24 h. The test is classed as cell-based, human. To be noted: HepaRG; for pod_httr_bifrost PoD: HTTr BIFROST PoD; for podl_path_minbmd PoD: HTTr minimum pathway BMD(L). Here is the method:
as §1

In test [10] the target is T2, 5-hydroxytryptamine receptor 1A, HTR1A (h) (Homo sapiens, UniProt P08908).
T2 sequence (P08908 1-422): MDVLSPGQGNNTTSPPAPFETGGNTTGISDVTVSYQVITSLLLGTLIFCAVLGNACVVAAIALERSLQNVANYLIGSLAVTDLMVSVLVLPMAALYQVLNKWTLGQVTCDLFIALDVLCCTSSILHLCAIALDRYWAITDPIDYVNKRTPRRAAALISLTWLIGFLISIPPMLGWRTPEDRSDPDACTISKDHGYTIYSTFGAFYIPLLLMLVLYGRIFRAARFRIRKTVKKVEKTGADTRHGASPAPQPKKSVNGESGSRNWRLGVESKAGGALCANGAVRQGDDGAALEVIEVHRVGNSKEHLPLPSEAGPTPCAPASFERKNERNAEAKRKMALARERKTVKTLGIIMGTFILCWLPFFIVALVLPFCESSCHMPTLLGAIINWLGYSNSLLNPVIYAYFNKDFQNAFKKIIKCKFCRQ
To be noted: control 8-OH-DPAT.

The target of test [11] is T3, Alpha-2A adrenergic receptor, ADRA2A (h) (Homo sapiens, UniProt P08913).
T3 sequence (P08913 1-465): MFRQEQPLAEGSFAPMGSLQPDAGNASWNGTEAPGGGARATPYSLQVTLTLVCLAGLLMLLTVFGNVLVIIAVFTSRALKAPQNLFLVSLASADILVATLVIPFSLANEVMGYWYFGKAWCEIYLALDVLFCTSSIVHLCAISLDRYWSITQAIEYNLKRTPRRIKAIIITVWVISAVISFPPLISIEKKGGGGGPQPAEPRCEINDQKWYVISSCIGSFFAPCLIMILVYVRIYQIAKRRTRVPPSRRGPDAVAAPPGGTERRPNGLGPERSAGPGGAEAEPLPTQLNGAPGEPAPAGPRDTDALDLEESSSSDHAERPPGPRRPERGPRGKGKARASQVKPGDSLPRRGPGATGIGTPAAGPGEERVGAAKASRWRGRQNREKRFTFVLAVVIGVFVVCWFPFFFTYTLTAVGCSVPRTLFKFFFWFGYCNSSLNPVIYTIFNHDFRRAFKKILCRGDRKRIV
The settings on record: control yohimbine.

The target of test [12] is Beta-1 adrenergic receptor, ADRB1 (h) (Homo sapiens, UniProt P08588). The settings on record: control atenolol.
Beta-1 adrenergic receptor, ADRB1 (h), sequence (P08588 whole entry): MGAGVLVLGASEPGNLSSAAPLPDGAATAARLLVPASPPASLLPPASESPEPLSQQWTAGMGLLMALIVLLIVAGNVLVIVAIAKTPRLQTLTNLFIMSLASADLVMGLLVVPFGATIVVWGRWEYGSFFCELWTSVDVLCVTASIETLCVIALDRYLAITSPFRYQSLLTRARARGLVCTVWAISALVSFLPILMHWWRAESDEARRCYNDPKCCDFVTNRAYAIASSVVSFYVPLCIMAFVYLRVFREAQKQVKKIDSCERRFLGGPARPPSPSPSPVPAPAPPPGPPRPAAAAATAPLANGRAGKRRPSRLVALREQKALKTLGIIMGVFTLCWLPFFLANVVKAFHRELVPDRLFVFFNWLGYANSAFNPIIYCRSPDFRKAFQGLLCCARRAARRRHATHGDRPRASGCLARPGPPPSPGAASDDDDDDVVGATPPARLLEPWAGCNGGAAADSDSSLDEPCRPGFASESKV
Test [13] has as its target Dopamine receptor D1, DRD1 (h) (Homo sapiens, UniProt P21728). The settings on record: control SCH 23390.
The target of test [14] is 5-hydroxytryptamine receptor 2B, HTR2B (h) (Homo sapiens, UniProt P41595).
5-hydroxytryptamine receptor 2B, HTR2B (h), sequence (P41595 whole entry): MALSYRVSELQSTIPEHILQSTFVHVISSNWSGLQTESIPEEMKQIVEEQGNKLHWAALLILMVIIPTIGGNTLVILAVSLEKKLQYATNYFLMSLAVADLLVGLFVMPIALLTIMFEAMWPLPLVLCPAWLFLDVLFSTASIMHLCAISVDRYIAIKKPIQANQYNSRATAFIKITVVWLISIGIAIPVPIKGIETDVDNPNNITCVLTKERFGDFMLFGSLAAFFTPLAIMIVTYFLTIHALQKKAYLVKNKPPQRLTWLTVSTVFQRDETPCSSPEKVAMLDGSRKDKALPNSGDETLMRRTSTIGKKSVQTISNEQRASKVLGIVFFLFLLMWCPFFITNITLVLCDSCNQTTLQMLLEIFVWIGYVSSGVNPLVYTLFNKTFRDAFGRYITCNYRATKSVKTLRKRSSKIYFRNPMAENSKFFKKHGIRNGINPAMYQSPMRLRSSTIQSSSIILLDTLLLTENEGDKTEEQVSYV
The mark [15] stands for this setting: IPP screening at 10 uM, control diazepam.
Setting [16] is: IPP screening at 10 uM, control (±)DOI.

Like-named read-outs stand apart in the source and are kept apart here.

Histamine H2 receptor, HRH2 (h), sequence (P25021 whole entry): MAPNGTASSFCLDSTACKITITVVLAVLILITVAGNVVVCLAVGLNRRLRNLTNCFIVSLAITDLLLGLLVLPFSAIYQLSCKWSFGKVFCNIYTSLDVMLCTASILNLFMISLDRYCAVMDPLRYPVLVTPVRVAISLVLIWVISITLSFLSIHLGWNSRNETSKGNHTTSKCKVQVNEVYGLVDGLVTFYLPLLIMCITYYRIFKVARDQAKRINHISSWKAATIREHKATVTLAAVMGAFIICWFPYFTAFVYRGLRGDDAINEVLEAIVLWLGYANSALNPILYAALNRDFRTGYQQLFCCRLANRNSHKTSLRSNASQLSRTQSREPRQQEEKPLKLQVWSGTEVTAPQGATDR
Acetylcholinesterase, ACHE (h), sequence (P22303 32-614): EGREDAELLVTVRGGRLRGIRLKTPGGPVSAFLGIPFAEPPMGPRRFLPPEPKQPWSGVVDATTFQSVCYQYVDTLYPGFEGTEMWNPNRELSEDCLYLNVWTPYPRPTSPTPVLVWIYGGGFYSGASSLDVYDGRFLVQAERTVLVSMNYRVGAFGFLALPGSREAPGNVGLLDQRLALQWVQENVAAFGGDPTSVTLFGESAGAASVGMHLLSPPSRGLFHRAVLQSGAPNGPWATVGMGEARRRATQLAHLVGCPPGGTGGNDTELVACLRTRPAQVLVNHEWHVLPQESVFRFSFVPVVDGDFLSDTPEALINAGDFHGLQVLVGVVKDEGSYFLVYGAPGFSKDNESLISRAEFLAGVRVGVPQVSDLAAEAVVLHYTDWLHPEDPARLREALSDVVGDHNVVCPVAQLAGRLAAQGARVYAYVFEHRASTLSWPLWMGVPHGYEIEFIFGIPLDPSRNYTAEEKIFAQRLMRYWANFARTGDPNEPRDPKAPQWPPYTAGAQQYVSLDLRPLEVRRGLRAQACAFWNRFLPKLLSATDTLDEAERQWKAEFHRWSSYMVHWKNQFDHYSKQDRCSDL
Dopamine receptor D1, DRD1 (h), sequence (P21728 whole entry): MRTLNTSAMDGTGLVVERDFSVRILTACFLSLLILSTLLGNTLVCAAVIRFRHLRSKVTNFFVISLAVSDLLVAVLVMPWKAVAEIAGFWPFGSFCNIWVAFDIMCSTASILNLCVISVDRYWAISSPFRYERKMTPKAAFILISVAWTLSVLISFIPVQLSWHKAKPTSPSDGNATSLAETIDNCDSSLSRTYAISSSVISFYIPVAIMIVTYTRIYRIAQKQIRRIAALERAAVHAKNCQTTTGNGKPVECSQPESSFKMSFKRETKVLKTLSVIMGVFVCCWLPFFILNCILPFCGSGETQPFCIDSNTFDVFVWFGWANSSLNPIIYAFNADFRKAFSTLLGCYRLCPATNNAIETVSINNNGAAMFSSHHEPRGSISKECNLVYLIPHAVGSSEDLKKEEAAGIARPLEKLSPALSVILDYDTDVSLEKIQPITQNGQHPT

As for `CCOP(=S)(OCC)Oc1nc(Cl)c(Cl)cc1Cl` [Chlorpyrifos, O,O-Diethyl O-(3,5,6-trichloropyridin-2-yl) phosphorothioate], the Enzymatic activity in test [1] (IPP screening at 10 uM) is listed as -10.5%. In addition, the Specific binding was -62.6% in test [2] (IPP screening at 10 uM); 15.4% in [3]; -11.0% in test [4] (setting [15]); 13.4% in test [5]; 11.6% in [10] (IPP screening at 10 uM); -3.7% in test [11] (IPP screening at 10 uM). In addition, the Specific binding in test [12] (IPP screening at 10 uM) stood at 5.3%; in test [13] (IPP screening at 10 uM), 1.9%; in test [14] (setting [16]) it was 82.5%. Also, the “IPP screening %, Coactivator recruitment” value in [6] (10 uM) is given as 9.0%; in test [7] (10 uM, agonist, T3), 2.0%. Besides, the “pod_cell_stress PoD” value with HepG2 cells [8] (HepG2, cell stress panel PoD) was found to be 0.578 µM. The “pod_httr_bifrost PoD” value in the test with HepG2 cells [9] came to 0.000303 µM; in the test on HepaRG cells it was 0.07063 µM. Also, the “podl_path_minbmd PoD” value in the test with HepG2 cells [9] worked out at 2.42 µM; in the test on HepaRG cells it was 1.957 µM.
For the compound `CC(C)(C)c1ccc(CCOc2ncnc3ccccc23)cc1` [Fenazaquin, 4-[2-(4-tert-Butylphenyl)ethoxy]quinazoline], in test [1] (IPP screening at 10 uM), the Enzymatic activity is given as -0.7%. The Specific binding in [2] (IPP screening at 10 uM) is recorded as -38.6%; in test [3] (IPP screening at 10 uM, control α-dendrotoxin), -1.6%; in test [4] (setting [15]) it was 7.6%; in test [5] (IPP screening at 10 uM, control veratridine) it was 39.5%; in test [10] (IPP screening at 10 uM), -11.2%; in test [11] (IPP screening at 10 uM), 5.2%. Also, the Specific binding in [12] (IPP screening at 10 uM) amounted to 16.5%; in [13] (IPP screening at 10 uM), 4.5%; in [14] (setting [16]), 77.1%. Besides, the “IPP screening %, Coactivator recruitment” value in [6] (10 uM) is listed as 4.0%; in [7] (10 uM, agonist, T3) it was -1.0%. For the same compound, the “Bioactivity Observations: cell stress panel” value in the test with HepG2 cells [8] is recorded as “Mechanism of action is insect-specific. Cell stress panel PoD is extrapolated beyond lowest concentration for leading biomarkers which suggests the concentration range tested was not low enough”. Also, the “pod_cell_stress PoD” value in the test on HepG2 cells [8] (HepG2, cell stress panel PoD) was determined as 0.0001306 µM. Moreover, the “pod_httr_bifrost PoD” value is given as 0.0002567 µM in the test with HepG2 cells [9] and 0.006087 µM in the test with HepaRG cells. In addition, the “podl_path_minbmd PoD” value with HepG2 cells [9] came to 0.002178 µM; with HepaRG cells, 0.07466 µM.
With `CC1(C)O[C@@H]2[C@@H](CO[C@@]3(COS(N)(=O)=O)OC(C)(C)O[C@@H]23)O1` [Topiramate, [(3aS,5aR,8aR,8bS)-2,2,7,7-Tetramethyltetrahydro-2H,3aH,7H-bis[1,3]dioxolo[4,5-b:4',5'-d]pyran-3a-yl]methyl sulfamate (non-preferred name)], in test [1] (IPP screening at 100 uM), the Enzymatic activity is given as -0.1%. The Specific binding in test [2] (IPP screening at 100 uM) is -13.7%; in [3] (IPP screening at 100 uM, control α-dendrotoxin), -2.7%; in test [4] (IPP screening at 100 uM, control diazepam), 9.7%; in test [5] (IPP screening at 100 uM, control veratridine), 30.2%; in test [10] (IPP screening at 100 uM) it was 18.5%; in test [11] (IPP screening at 100 uM), -5.6%. Moreover, the figures for the Specific binding in [12] (IPP screening at 100 uM), in test [13] (IPP screening at 100 uM) and in test [14] (IPP screening at 100 uM; control ±)DOI) were -2.9%, -2.4% and -0.4%, respectively. For the same compound, the “IPP screening %, Coactivator recruitment” value was -1.0% in [6] (100 uM, * denotes assay interference (2-Amino-6-chloro-4-nitrophenol, HC Red 3)) and 0.0% in [7] (100 uM, agonist, T3, * denotes assay interference (2-Amino-6-chloro-4-nitrophenol, HC Red 3)). In the test with HepG2 cells [8] (HepG2, cell stress panel PoD), the “pod_cell_stress PoD” value was found to be 140.54 µM. Besides, the figures for the “pod_httr_bifrost PoD” value in the test on HepG2 cells [9] and in the test on HepaRG cells were 3696.73 µM and 28.4144 µM, respectively. Also, the “podl_path_minbmd PoD” value in the test with HepG2 cells [9] came to 6631.79 µM; with HepaRG cells it was 48.7054 µM.
As for “(4S,4aR,5S,5aR,6S,12aS)-4-(Dimethylamino)-3,5,6,10,12,12a-hexahydroxy-6-methyl-1,11-dioxo-1,4,4a,5,5a,6,11,12a-octahydrotetracene-2-carboxamide--hydrogen chloride (1/1) [Oxytetracycline hydrochloride]”, the Specific binding in test [2] (IPP screening at 10 uM) is -18.3%; in [3] it was -19.0%; in test [4] (setting [15]), -0.4%; in [5], 10.5%; in test [10] (IPP screening at 10 uM) it was 1.5%; in [11] (IPP screening at 10 uM) it was -1.4%. Further, the results for the Specific binding in test [12] (IPP screening at 10 uM), in test [13] (IPP screening at 10 uM) and in test [14] (setting [16]) were 7.5%, 1.4% and 5.9%, respectively. The “IPP screening %, Coactivator recruitment” value in test [7] (10 uM, agonist, T3) turned out to be 1.0%.
As to “mixture of 2- and 3-tert-butyl-4-methoxyphenol [Butylated Hydroxyanisole]”, the Enzymatic activity in [1] (IPP screening at 10 uM) is on record as 5.9%. In addition, the Specific binding in test [2] (IPP screening at 10 uM) is reported as -2.5%; in test [3], 4.9%; in test [4], -10.9%; in test [5], 16.8%; in test [10] (IPP screening at 10 uM), -7.7%; in test [11] (IPP screening at 10 uM), 1.5%. The Specific binding was determined as 6.3% in [12] (IPP screening at 10 uM), 3.5% in test [13] (IPP screening at 10 uM) and 80.6% in [14] (setting [16]). Moreover, the “IPP screening %, Coactivator recruitment” value in test [7] is 3.0%. The “pod_cell_stress PoD” value in the test with HepG2 cells [8] worked out at 32.7666 µM.
